Data published in PubChem BioAssay (NCI).
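Five concentrations, 48 hours, 96-well plates. GI50 = concentration required for 50% inhibition of growth. TGI: total growth inhibition.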

Tests used:
Experiment in all cases: NCI tumour cell line growth inhibition, 48 h
BT-549 breast = system: BT-549 breast
HT29 colon = system: HT29 colon
NCI-H23 lung = system: NCI-H23 lung
OVCAR-8 ovarian = system: OVCAR-8 ovarian
SK-MEL-28 melanoma = system: SK-MEL-28 melanoma
SN12C renal = system: SN12C renal
SR leukemia = system: SR leukemia
A498 renal = system: A498 renal
NCI-H460 lung = system: NCI-H460 lung
SK-MEL-2 melanoma = system: SK-MEL-2 melanoma

SMILES	TGI (BT-549 breast) [µM]	TGI (HT29 colon) [µM]	TGI (NCI-H23 lung) [µM]	TGI (OVCAR-8 ovarian) [µM]	TGI (SK-MEL-28 melanoma) [µM]	TGI (SN12C renal) [µM]	TGI (SR leukemia) [µM]	TGI (A498 renal) [µM]	TGI (NCI-H460 lung) [µM]	TGI (SK-MEL-2 melanoma) [µM]	GI50 (HT29 colon) [µM]	GI50 (OVCAR-8 ovarian) [µM]	GI50 (SK-MEL-28 melanoma) [µM]
COc1ccc(N2C(=O)C(=O)C3(CCCCC3)C2=O)c(OC)c1OC	> 100	> 100	> 100	> 100	> 100	> 100	> 100	–	–	–	–	–	–
CCN(CCN(CC)C(=O)NC)C(=O)NC	> 100	> 100	> 100	> 100	> 100	> 100	> 100	> 100	> 100	> 100	–	–	–
Cc1sc2nc3n(c(=O)c2c1C)N=C(c1ccccc1)CS3	> 100	> 100	> 100	> 100	> 100	> 100	> 100	> 100	> 100	–	–	–	–
COc1cccc(/C=N/NC(=O)CN(C)C)c1O	> 100	> 100	> 100	> 100	> 100	> 100	–	> 100	> 100	–	–	–	–
CCOC(=O)[C@H](CO)Nc1c(O)c2c(c(O)c1Cl)C(=O)C=CC2=O	> 10	> 10	> 10	> 10	> 10	> 10	> 10	–	> 10	> 10	–	–	–
Cc1ccc(Cc2n[nH]c(=O)n2N2C(=O)c3ccccc3C2=O)cc1	> 100	> 100	> 100	> 100	> 100	> 100	> 100	> 100	> 100	> 100	–	–	–
COC(=O)[C@@H](NC(=O)c1ccc(CNC(=O)/C(C)=C/c2ccccc2)cc1)C(C)C	> 100	> 100	> 100	> 100	> 100	> 100	> 100	> 100	> 100	> 100	–	–	–
COc1ccc(Oc2nc3c(N)cc(C(F)(F)F)cc3nc2-c2ccccc2)cc1	> 100	22.8	> 100	> 100	> 100	–	> 100	55.6	57.8	25.9	–	–	–
COc1cc(O)c2c(=O)c(OC)c(-c3ccc(OC)c(OC)c3)oc2c1.[Sn]	> 100	> 100	–	> 100	> 100	> 100	–	–	> 100	–	> 100	> 100	> 100
CN(C)C=Nc1c2c(nc3ccccc13)CCCC2	> 100	> 100	> 100	> 100	> 100	> 100	> 100	> 100	–	> 100	–	–	–
CC(=O)CC12NC(=O)N(C)N=C1N(C)C(=O)N(C)C2=O (stereo unspecified)	> 100	> 100	> 100	> 100	> 100	> 100	> 100	> 100	> 100	–	–	–	–
CCOC(=O)[C@@]12NN=N[C@@H]1[C@H]1CO[C@H](c3ccccc3)N1C2=O	25.9	32.4	32.8	23.7	19.5	26.8	–	24.1	20.5	21.7	–	–	–
CCc1n[nH]c(=O)n1N=C(c1ccccc1)c1ccccc1	> 100	> 100	> 100	> 100	> 100	> 100	–	> 100	> 100	> 100	–	–	–
Cc1ccc(O)cc1 (tested in a mixture with another compound)	> 100	> 100	> 100	> 100	> 100	> 100	–	> 100	> 100	> 100	–	–	–
Cc1csc2c(=O)n(COCc3ccccc3)c(=O)[nH]c12	> 100	> 100	> 100	> 100	> 100	> 100	> 100	> 100	> 100	–	–	–	–
O=C(c1cccnc1)N1N=C(c2ccc3c(c2)OCO3)CC1(O)c1cc(F)c(Cl)cc1Cl (stereo unspecified)	47.9	35.9	> 100	38.4	77.5	36.5	76.4	–	36.9	59.2	–	–	–
O=C1NC2OC(CO)C(O)C(O)C2O1 (stereo unspecified)	–	> 100	> 100	> 100	> 100	> 100	> 100	> 100	> 100	> 100	–	–	–
CC(=O)OC12OC(C)(C3C(=O)N(c4ccccc4)C(=O)C31)N(c1ccccc1)C2=O (stereo unspecified)	> 100	> 100	> 100	> 100	> 100	> 100	> 100	–	> 100	> 100	–	–	–
CN(C)C1(c2cc3ccccc3s2)CCCCC1	> 100	> 100	> 100	> 100	–	> 100	46.5	> 100	> 100	47.7	–	–	–
C=CC(=C)CCC(Br)C(C)(C)Cl (stereo unspecified)	> 100	> 100	> 100	> 100	> 100	> 100	–	–	> 100	> 100	–	–	–
CCC1OC2C(CC=C(C)C)=C3OC(C)(O)C(C)(CC)C(=O)C3=C3OC(=O)C=C1C32 (stereo unspecified)	49.5	–	70.7	–	> 100	–	–	> 100	92.5	36.1	–	–	–
Cc1cc(N)c2cc(NC(=O)Nc3ccc4nc(C)cc(N)c4c3)ccc2n1	> 100	> 100	> 100	> 100	> 100	> 100	–	> 100	> 100	> 100	–	–	–
N#Cc1c(O)c(C=O)c(=O)n2c1[nH]c1ccccc12	> 100	> 100	> 100	> 100	> 100	> 100	> 100	> 100	> 100	–	–	–	–
CC(=O)N1CCN(CCCCN2c3ccccc3Sc3cc(N=[N+]=[N-])ccc32)CC1	31.6	27.8	30.1	32	33.4	31.4	26.5	–	28.1	–	–	–	–
